In patent US9283242B2, “Uses of dihydro bases” (priority 2013, dated 2016):
“Also recorded” adds a separate entry of the source.

Assays:
[1] = system: HK82 (AlkB−) E. coli cells; assay type: cell-based
[2] = system: HK82SOS; assay: CRAB lesion bypass assay, HK82SOS cells; assay type: cell-based, E. coli; conditions: percentage relative to unmodified control genome
Description: (§1) All E. coli strains used in this work contain the F′ episome, which enables infection by M13 phage. GW5100 strain was used for large scale preparation of M13 phage DNA, SCS 110 (JM110, end Al) was used for amplification of progeny phage post-electroporation, and NR9050 was the strain of choice for double agar plating with X-GAL for blue-clear detection of plaques. The E. coli strains used to replicate lesion-containing phage were HK81 (as AB1157, but nalA) and HK82 (as AB1157, but nalA alkB22; AlkB-deficient).
Lesion-containing genomes were mixed with the competitor genome (80:20 molar ratio) and electroporated in triplicate into 100 μl competent cells using a 2 mm-gap cuvette and a BTX electroporator set to 2.5 kV and 125 a Typical pulse lengths were 4.9 msec. The cells were immediately transferred to 10 ml LB and an aliquot was immediately plated using the agar overlay method to verify that a minimum of 10^5 independent initial electroporation events occurred in 10 ml of culture. Incubation for 6 h at 37° C. with aeration generated the progeny phage, which were then reamplified in SCS 110 cells (10 μl overnight culture and 100 μl of the 6 h supernatant in 10 ml LB) to dilute out the residual genomic DNA used for electroporation. Single-stranded M13 progeny phage DNA was isolated from 1.4 ml of supernatant using a Q1Aprep Spin M13 Kit with final DNA suspension in 100 μl elution buffer. CRAB forward and reverse primers were used to amplify the region of interest from 15 μl per Q1Aprep elution sample in a total volume of 25 μl containing 50 pmol of each primer, 1×Pfu Turbo buffer, 1.25 U Pfu Turbo DNA polymerase and […] of each dNTP. The PCR program used 30 cycles of 67° C. (1 min) annealing and 72° C. (1 min) extensions. […] The gels were visualized on a phosphorimager (Typhoon 7000, GE Healthcare Life Sciences); the band intensities were quantified using IMAGEJ software (National Institutes of Health). Lesion bypass was calculated as the percentage ratio of the intensity of the 18-mer band (lesion signal) to the intensity of the 21-mer band (competitor signal). […]

[3] = system: HK81 (AlkB+) E. coli cells; assay type: cell-based
Procedure: (A) A 16mer oligonucleotide containing KP1212 (SEQ ID NO: 1) (or controls) at a specific site was chemically synthesized and ligated into the genome of an M13 bacteriophage. (B) The KP1212-containing M13 genomes were replicated within E. coli cells. Progeny were analyzed to characterize the amount and the type of nucleic acid base placed opposite the lesion during replication. The relative reduction in lesion vs. non-lesion competitor progeny formation was used as an estimate of the extent to which KP1212 and m3C inhibited DNA replication. (C) The KP1212-containing M13 genomes were used as templates for in vitro polymerase extension assays, carried out at 72° C., using the high-fidelity DNA polymerase PfuTurbo. (D) Bypass efficiency (CRAB assay) of KP1212, m3C, C in HK81 (AlkB^+) and HK82 (AlkB^−) E. coli cells. m3C and undamaged C were used as controls. Genomes were made and normalized to one another before being combined with a competitor genome. Each mixture was transformed into the corresponding cell strain in triplicate, and bypass efficiency was calculated by using the undamaged C genome as 100% bypass, with error bars representing one standard deviation. (E) Mutagenesis (REAP assay) of KP1212, m3C, and C in HK82 (AlkB^−) E. coli cells. m3C, undamaged C, and an approximately equimolar mixture of genomes carrying unmodified G/A/T/C bases at the site of inquiry (denoted as GATC) were used as controls. Genomes containing the lesions of interest were transfected into E. coli in triplicate.
as §1

[4] = system: HK82 (AlkB−) E. coli cells; assay type: cell-based; remark: listed apart in the source
[5] = system: HK82-SOS; assay: REAP mutagenesis assay, HK82-SOS cells; assay type: cell-based, E. coli; conditions: (b) HK82-SOS
Description: as §1
(§2) Lesion-containing genomes were mixed with the competitor genome (80:20 molar ratio) and electroporated in triplicate into 100 μl competent cells using a 2 mm-gap cuvette and a BTX electroporator set to 2.5 kV and 125 a Typical pulse lengths were 4.9 msec. The cells were immediately transferred to 10 ml LB and an aliquot was immediately plated using the agar overlay method to verify that a minimum of 10^5 independent initial electroporation events occurred in 10 ml of culture. Incubation for 6 h at 37° C. with aeration generated the progeny phage, which were then reamplified in SCS 110 cells (10 μl overnight culture and 100 μl of the 6 h supernatant in 10 ml LB) to dilute out the residual genomic DNA used for electroporation. Single-stranded M13 progeny phage DNA was isolated from 1.4 ml of supernatant using a Q1Aprep Spin M13 Kit with final DNA suspension in 100 μl elution buffer. CRAB forward and reverse primers were used to amplify the region of interest from 15 μl per Q1Aprep elution sample in a total volume of 25 μl containing 50 pmol of each primer, 1×Pfu Turbo buffer, 1.25 U Pfu Turbo DNA polymerase and […] of each dNTP. The PCR program used 30 cycles of 67° C. (1 min) annealing and 72° C. (1 min) extensions. After purification using QIAQUICK PCR purification columns, 4 μl of the PCR product were treated with BbsI (1.5 U) and SAP (0.3 U) in a total volume of 6 μl by incubating at 37° C. for 4 h. After phosphatase inactivation, (80° C. for 5 min), the 5′ ends were then radiolabeled using [γ-^32P]-ATP (1.66 pmol, 10 μCi/μl, 6000 Ci/mmol), cold ATP (16 pmol) and 5 U of OPTIKINASE at 37° C. for 30 min. Following the kinase inactivation at 65° C. for 20 min, the labeled product was then trimmed by HaeIII (10 U in a final volume of 10 μl) at 37° C. for 2 h, and diluted 1:1 in formamide loading dye. PAGE separation on a 20% denaturing gel, run for about 3.5 h at 550 V, until the xylene cyanol dye migrated 10.5 cm, yielded two bands for each sample: an 18-mer originating from the lesion-containing genome and a 21-mer originating from the competitor genome. The gels were visualized on a phosphorimager (Typhoon 7000, GE Healthcare Life Sciences); the band intensities were quantified using IMAGEJ software (National Institutes of Health). Lesion bypass was calculated as the percentage ratio of the intensity of the 18-mer band (lesion signal) to the intensity of the 21-mer band (competitor signal).
(§3) The REAP assay methodology is identical to the CRAB assay except for the PCR primers, which amplified only the progeny DNA originating from the lesion-carrying genomes. Following electrophoresis, the 18-mer bands were excised from the gel, crushed and extracted with 200 μl water. After desalting with SEPHADEX G-50 Fine resin spin columns, the samples were lyophilized to dryness, resuspended in 5 μl containing 1 μg P1 Nuclease in 30 mM sodium acetate (pH 5.3) and 10 mM zinc chloride, and incubated at 50° C. for 1 h. One μl of each sample was then spotted onto PEI-TLC plates and separated using 200 ml of a saturated solution of (NH4)2HPO4 adjusted to pH 5.8. After 24 h of development, the TLC plates were air-dried and quantified using phosphorimagery. […]

[6] = system: HK81 (AlkB+) E. coli cells; assay: REAP mutagenesis assay, HK81 cells; assay type: cell-based
Description: as §1, §2, §3

[7] = Variable temperature 1H NMR, tautomerism in DMF-d7; assay type: physicochemical; conditions: DMF-d7, 20 to −60° C.
Procedure: At 20° C., exchangeable protons on the base moiety are observed at 7.58 ppm and 4.14 ppm (FIG. 10). At −60° C., exchangeable protons on the base moiety are observed at 8.70 ppm, 8.08 ppm, and 4.68 ppm (FIG. 11). Protons with a chemical shift of 8.70, 8.08, and 7.58 ppm likely correspond to enolic, amido, or imino protons, while protons with a chemical shift of 4.68 and 4.14 ppm likely correspond to amino protons. The expected chemical shifts for enolic, amido, and imino protons are relatively close, and thus these species cannot be assigned at this stage. […] Only the existence of multiple tautomeric species would explain the presence of three exchangeable protons resonances. […] Based on their chemical structures, the keto-amino tautomer will pair with guanine and the keto-imino/enol-imino tautomers can pair with adenine.
All NMR experiments were performed on Varian 500 MHz NMR spectrometers. The deuterated solvent DMF-d7 was from Cambridge Isotope Laboratories, Andover, Mass., USA. 5-Aza-5,6-dihydro-2′-deoxycytidine (KP1212) nucleoside was from Berry & Associates Inc., Dexter, Mich., USA. The NMR sample was prepared by dissolving 10 mg of KP1212 nucleoside in 1.0 ml DMF-d7 (final concentration ˜44 mM). ^1H NMR spectra were reported in parts per million (ppm) and were referenced to the signals for DMF-d7 (8.03 ppm). ^13C NMR spectra were referenced to the signals for DMF-d7 (163.15 ppm).
FIG. 14A depicts the structures of all five possible tautomers (1 to 5) of KP1212, among which the three active protons on the nucleobase shift among the 02, N3, N4 and N5 positions. […] Before assigning the three active protons on the nucleobase moiety, all non-exchangeable protons in KP1212 and the two hydroxyl protons on the 3′ and 5′ positions were identified by carrying out 1D (^1H and ^13C) and 2D (COSY, HSQC, and HMBC) NMR experiments. The NMR signals of the three active protons in the base portion of KP1212 were studied at different temperatures. […] When the temperature was decreased to −50° C., the three broad peaks resolved into six distinct proton resonances (FIG. 14B, denoted as peaks i-vi), which could be assigned to imino (designated as e and n in FIGS. 14A to 14C), amido (designated as g and m), enolic (designated as c and d) or amino (designated as a, b, f, h, i, j, k, l, and o) protons.
At −50° C. six distinct proton resonances (FIG. 14B, i to vi) were observed, attributable to protons bound either to nitrogen or to oxygen atom (for only the base portion of the KP1212 molecule). Integration of the six broad peaks permitted estimation of the relative ratios of the five tautomeric species that exist in solution (FIG. 14A).
The NMR data also allowed the determination of the relative ratios of the tautomeric species present in the DMF solution at −50° C. (FIGS. 14B and 14C). Several peaks in the NMR spectrum partially overlapped (e.g., iv and v), so the raw data were reconstructed using a least squares fit algorithm (FIG. 16). The reconstructed peaks from the simulation were integrated, yielding an estimate of the relative amounts of each of the proton resonances in the spectrum. […] 2) Based on the peak assignments from part 1), a system of linear equations was set up using the relative amounts of tautomers as unknown variables (FIG. 14D). Each NMR peak provided a linear equation whereby the peak area should be equal to the sum of all tautomers (as relative amounts) containing protons that contribute to that peak. The solutions of these equations yielded the relative ratios of the tautomeric species present in DMF at −50° C. (FIG. 14D).

SMILES: Cn1c(N)ccnc1=O [m3C, 3-methylcytosine]
- replication block / toxicity to replication ([1]; E. coli (FIG. 18D), for m3C cells that lack AlkB): very toxic to replication
- Polymerase bypass efficiency, Avg. ([1]; HK82, percentage relative to unmodified control genome, triplicate): 14%
- Polymerase bypass efficiency, Avg. [2]: 45%
- Polymerase bypass efficiency, Avg. ([3]; HK81, percentage relative to unmodified control genome): 113%
- toxicity to replication ([3]; cells that expressed the repair enzyme AlkB): toxicity was abolished
- Mutagenicity, Average % A ([4]; (a) HK82): 30.6%
- Mutagenicity, Average % C ([4]; (a) HK82): 13.2%
- Mutagenicity, Average % G ([4]; (a) HK82): 1.3%
- Mutagenicity, Average % T ([4]; (a) HK82): 54.9%
- base pairing / mutagenicity (in words) ([4]; FIGS. 18C, 18E, m3C in repair deficient cells): mispair with both A and T
- Mutagenicity, Average % A [5]: 33.6%
- Mutagenicity, Average % C [5]: 5.7%
- Mutagenicity, Average % G [5]: 3.2%
- Mutagenicity, Average % T [5]: 57.5%
- Mutagenicity, Average % C [6]: 100.0%
- Mutagenicity, Average % A ([6]; (c) HK81): 0.0%
- Mutagenicity, Average % G ([6]; (c) HK81): 0.0%
- Mutagenicity, Average % T ([6]; (c) HK81): 0.0%

SMILES: Nc1ncn([C@H]2C[C@H](O)[C@@H](CO)O2)c(=O)n1 [5-Aza-dC, 5-aza-2′-deoxycytidine]
- tautomerism by Variable Temperature NMR [7]: does not show multiple tautomerism; also recorded: single tautomerism

SMILES: NC1=NC(=O)N(C2CC(O)C(CO)O2)CC1 (centres unmarked) [DHdC]
- tautomerism by Variable Temperature NMR [7]: shows multiple tautomerism; also recorded: multiple tautomers
